Experimental data taken from ChEMBL document CHEMBL2384921, “An altered zinc-binding site confers resistance to a covalent inactivator of New Delhi metallo-beta-lactamase-1 (NDM-1) discovered by high-throughput screening” (Bioorg Med Chem, 2013).
Active and inactive are the calls of the source. No cut-off for these calls is given here.

Legend:
[1] = Time-dependent inhibition of wild type NDM-1 (unknown origin) expressed in Escherichia coli BL21 (DE3) at 100 uM
[2] = Inhibition of TEM-1 (unknown origin) using nitrocefin as substrate preincubated 10 mins followed by substrate addition measured after 20 mins relative to control
[3] = Time-dependent inhibition of recombinant NDM-1 C108D mutant (unknown origin) expressed in Escherichia coli BL21 (DE3) at 100 uM
[4] = Inhibition of TEM-1 (unknown origin) using nitrocefin as substrate preincubated 10 mins followed by substrate addition measured after 20 mins
[5] = Inhibition of NDM-1 (unknown origin) using nitrocefin as substrate preincubated 10 mins followed by substrate addition measured after 20 mins

With 4-[sequence] ACID the inhibition [1] was “Active”, the Imax [2] was 8% and the inhibition [3] was “inactive”.

Nc1ccc2c3c(cccc13)C(=O)NC2=O showed an IC50 [4] of 5.2 µM, an Imax [2] of 131% and an IC50 [5] of 0.7 µM.

With OCCN(CCO)c1nc(N2CCCCC2)c2nc(N(CCO)CCO)nc(N3CCCCC3)c2n1 [DIPYRIDAMOLE] the IC50 [4] was > 30 µM, the Imax [2] was 26% and the IC50 [5] was > 10 µM.

With Cn1cc(C2=C(c3ccc(Cl)cc3Cl)C(=O)NC2=O)c2ccccc21 [SB-216763] the IC50 [4] was > 30 µM, the Imax [2] was 2% and the IC50 [5] was 28 µM.

In the case of CC(=O)[C@]1(O)Cc2c(O)c3c(c(O)c2[C@@H](O[C@H]2C[C@H](N)[C@H](O)[C@H](C)O2)C1)C(=O)c1ccccc1C3=O [IDARUBICIN], the IC50 [4] is reported as 7.3 µM, the Imax [2] is reported as 100% and the IC50 [5] is reported as 0.7 µM.

For CCN(CC)C(=O)N[C@@H]1C[C@@H]2c3cccc4[nH]cc(c34)C[C@H]2N(C)C1, the IC50 [4] was > 30 µM and the IC50 [5] was > 30 µM.

With 4-CHLOROMERCURIBENZOIC ACID the IC50 [4] was > 30 µM and the IC50 [5] was 2.3 µM.

With Cc1c2ccncc2c(C)c2c1[nH]c1ccccc12 [ELLIPTECINE] the IC50 [4] was > 30 µM and the IC50 [5] was > 30 µM.
